Patent US9428732B2, “Compositions and methods for differentiating pluripotent stem cells into primitive blood cells and uses thereof” (Primorigen Biosciences, Inc., priority 2011, dated 2016)

Legend:
[1] = tested on: Pluripotent stem cells (iPS and ES); test: Effects of DEAB on blood cell phenotypes, flow cytometry at Day 16; type: cell-based, human; settings: DEAB 10 uM vs DMSO
Method: Cells from the differentiation cultures were collected at time points indicated and washed in phosphate-buffered saline (PBS) supplemented with 2% FBS. Adherent cells were individualized using TrypLE (Life Technologies, Carlsbad Calif.), passed through a 27.5-gauge needle and filtered through a 40-70 μm cell strainer (BD Falcon, San Diego, Calif., www.bdbiosciences.com). Cells were treated with 7-aminoactinomycin D (7AAD) before analysis, and positive cells were gated out of results. Cells were stained with fluorescence-conjugated antibodies for the hematopoietic stem and progenitor cell markers CD45, CD43, CD34, CD38, CD90; CD45RA. Cells were analyzed on a FACS Canto (BD, Franklin Lakes, N.J., www.bd.com).
Cells were counted using the FACS cell counter feature (BD) or by cytometer using a bright-field microscope to obtain viable cell numbers. The total numbers of cells of each subpopulation were calculated by multiplying the number of cells by the proportion of cells of that lineage as determined by flow cytometry. Statistical analyses of data points and error bars of this study show mean and standard deviation, with statistical significance assessed by the Student's t-test.
From Example 1, DEAB was selected to move forward into an experiment further establishing the phenotypes of blood cells emerging from the differentiation in order to identify at what stage of differentiation DEAB may exert its effects. Pluripotent stem cells (iPS and ES) were grown and induced to produce embryoid bodies on Day 8 as described. The EBs were then exposed to Differentiation Medium 1 for a total of 8 days with partial medium changes made every other day as described. Cells were harvested on Day 16 and washed in phosphate-buffered saline (PBS) supplemented with 2% FBS. Adherent cells were individualized using TrypLE (Life Technologies, Carlsbad Calif.), passed through a 27.5-gauge needle and filtered through a 40-70 μm cell strainer (BD Falcon, San Diego, Calif., www.bdbiosciences.com). Cells were treated with 7-aminoactinomycin D before analysis and positive cells were gated out of results. Cells were stained with fluorescence conjugated antibodies for the hematopoietic stem and progenitor cell markers CD45, CD43, CD34, CD38, CD90, CD45RA. Cells were analyzed on an FACS Canto (BD, Franklin Lakes, N.J., www.bd.com).

[2] = tested on: iPS-derived hematopoietic progenitors and phenotypic HSCs; test: Differentiation into lymphocytes on OP9 and OP9delta feeder lines, FACS; type: cell-based, human; settings: cells generated from iPS cells with DEAB at 10 uM; 14 to 21 days
Method: The differentiation cultures were trypsinized at the indicated time points and single-cell suspensions were generated following trypsinization. For the Colony Forming Unit (CFU) assays using methyl cellulose cultures, 25% of the cells were plated in 2 ml of MethoCult H4435 (STEMCELL Technologies, Vancouver, BC) in six-well plates. Alternatively, sorted CD45+, CD43+, CD34+, 7AAD-cells were sorted and plated at 500 cells per 2 ml Methocult media. Cells were incubated for 14 days in a humidified incubator at 37° C. with 5% CO2 and evaluated for colonies by bright-field microscopy (Zeiss (Oberkochen, Germany, www.zeiss.com) Axiovert 200 with a Zeiss Axiocam), Cells were resuspended in PBS supplemented with 2% FBS. For the lymphoid myeloid differentiation assays, either CD45+, CD43+, CD34+, 7AAD-hematopoietic progenitors, or CD45+, CD43+, CD34+, CD38−, CD90+, CD45RA− phenotypic HSCs were plated at 20-40 cells per well onto OP9 and OP9delta feeder lines for B-cell and T-cell differentiation, respectively, as previously described (Nozad Charoudeh H, Tang Y, Cheng M, Cilio C M, Jacobsen S E, Sitnicka E., Identification of an NK/T cell-restricted progenitor in adult bone marrow contributing to bone marrow- and thymic-dependent NK cell, Blood, 2010 Jul. 15; 116(2):183-92. NK cell differentiation as well as myeloid cell differentiation was also detected in this differentiation system. […]

CCN(CC)c1ccc(C=O)cc1 [DEAB, 4-diethylaminobenzaldehyde]
blood cells (CD45+, CD43+) ([1]; Day 16): modestly higher values
hematopoietic progenitor cells (CD45+, CD43+, CD34+) ([1]; Day 16): modestly higher values
population of cells exhibiting a hematopoietic stem cell phenotype (CD45+, CD43+, CD34+, CD38−, CD90+, CD45RA−) ([1]; Day 16): substantial improvement
total viable cells ([1]; Day 16): modestly higher values
increase in generation of the phenotypic stem cell phenotype ([1]; FIGS. 4B and 4D): over 3 fold
ability of generated HSCs to differentiate into lymphoid cells (B, NK, T) [2]: capable of differentiating to each type of tested lymphocyte
